Experimental data: ChEMBL document CHEMBL4828727, “Antibacterial and antitumoral properties of 1,2,3-triazolo fused triterpenes and their mechanism of inhibiting the proliferation of HL-60 cells” (Eur J Med Chem, 2021)
Converted amounts (≈) assume the structure as drawn. The source made the active and inactive calls. No cut-off for these calls is given here.

Experiments:
LN-229 = assay: Antiproliferative activity against human LN-229 cells assessed as inhibition of cell viability measured after 72 hrs by colorimetric MTS viability assay; assay type: functional, cell-based; conditions: LN-229, 72 h
HL-60 [1] = assay: Induction of apoptosis in human HL-60 cells assessed as late apoptotic cells at 10 uM after 48 hrs by Annexin V-PE/7-AAD dual staining based flow cytometry (reference value: 3.93%); assay type: functional
HL-60 [2] = assay: Induction of mitochondrial membrane potential loss in human HL-60 cells at 6 uM after 48 hrs by JC-1 staining based flow cytometry (reference value: 3.49%); assay type: functional
HL-60 [3] = assay: Induction of autophagy in human HL-60 cells assessed as fold increase in MDC fluorescence intensity at 8 uM measured after 48 hrs by flow cytometry relative to control; assay type: functional
[4] = test system: Salmonella enterica subsp. enterica; assay: Antibacterial activity against Salmonella enterica subsp.enterica ATCC13076 assessed as growth inhibition after 20 hrs by broth microdilution method; assay type: functional
[5] = Antiproliferative activity against human DND41 cells assessed as inhibition of cell viability measured after 72 hrs by real-time IncuCyte proliferation analysis; assay type: functional, cell-based; conditions: DND41, 72 h
HL-60 [6] = assay: Induction of apoptosis in human HL-60 cells assessed as live cells at 6 uM in presence of 3-MA after 48 hrs by Annexin V-PE/7-AAD dual staining based flow cytometry (reference value: 91.1%); assay type: functional
HL-60 [7] = assay: Induction of apoptosis in human HL-60 cells assessed as early apoptotic cells at 10 uM after 48 hrs by Annexin V-PE/7-AAD dual staining based flow cytometry (reference value: 1.72 to 3.25%); assay type: functional
HL-60 [8] = assay: Induction of apoptosis in human HL-60 cells assessed as early apoptotic cells at 8 uM in presence of 3-MA after 48 hrs by Annexin V-PE/7-AAD dual staining based flow cytometry (reference value: 3.14%); assay type: functional
HL-60 [9] = assay: Induction of apoptosis in human HL-60 cells assessed as necrotic cells at 6 uM in presence of 3-MA after 48 hrs by Annexin V-PE/7-AAD dual staining based flow cytometry (reference value: 2.62%); assay type: functional
HL-60 [10] = assay: Induction of apoptosis in human HL-60 cells assessed as live cells at 10 uM in presence of 3-MA after 48 hrs by Annexin V-PE/7-AAD dual staining based flow cytometry (reference value: 91.1%); assay type: functional
HL-60 [11] = assay: Induction of apoptosis in human HL-60 cells assessed as early apoptotic cells at 6 uM in presence of 3-MA after 48 hrs by Annexin V-PE/7-AAD dual staining based flow cytometry (reference value: 3.14%); assay type: functional
HL-60 [12] = assay: Induction of apoptosis in human HL-60 cells assessed as necrotic cells at 8 uM after 48 hrs by Annexin V-PE and 7AAD based flow cytometry (reference value: 2.64 to 3.64%); assay type: functional
Listeria innocua = assay: Antibacterial activity against Listeria innocua LMG11387 assessed as growth inhibition after 20 hrs by broth microdilution method; assay type: functional
HL-60 [13] = assay: Induction of apoptosis in human HL-60 cells assessed as live cells at 8 uM in presence of 3-MA after 48 hrs by Annexin V-PE/7-AAD dual staining based flow cytometry (reference value: 91.1%); assay type: functional
HL-60 [14] = assay: Induction of apoptosis in human HL-60 cells assessed as live cells at 10 uM after 48 hrs by Annexin V-PE/7-AAD dual staining based flow cytometry (reference value: 90.1 to 90.7%); assay type: functional
HL-60 [15] = assay: Induction of mitochondrial membrane potential loss in human HL-60 cells at 8 uM after 48 hrs by JC-1 staining based flow cytometry (reference value: 3.49%); assay type: functional
Rec1 = assay: cells; assay type: functional, cell-based; conditions: Homo sapiens, Rec1, 72 h
Description: Cytotoxicity against human REC1 cells assessed as inhibition of cell viability measured after 72 hrs by real-time IncuCyte proliferation analysis

K562 = assay: cells; assay type: functional, cell-based; conditions: Homo sapiens, K562, 72 h
Description: Antiproliferative activity against human K562 cells assessed as inhibition of cell viability measured after 72 hrs by real-time IncuCyte proliferation analysis

HL-60 [16] = assay: Induction of apoptosis in human HL-60 cells assessed as early apoptotic cells at 8 uM after 48hrs by Annexin V-PE/7-AAD dual staining based flow cytometry (reference value: 1.72 to 3.25%); assay type: functional

MIC50 [4]: inactive | MIC50 (Listeria innocua): 103 µg/mL (≈ 158 µM) | IC50 (Rec1): 6.2 µM | IC50 (K562): 80.7 µM
Compound: COc1ccc2[nH]cc(CCn3nnc4c3C(C)(C)[C@@H]3CC[C@]5(C)[C@H](CC=C6[C@@H]7CC(C)(C)CC[C@]7(C(=O)O)CC[C@]65C)[C@@]3(C)C4)c2c1
IC50 (LN-229): 44.1 µM | Activity (HL-60 [1]): 63.2% | Activity (HL-60 [2]): 7.86% | fold change (FC) (HL-60 [3]): 1.72 | IC50 [5]: 7.2 µM | Activity (HL-60 [6]): 82.1% | Activity (HL-60 [7]): 8.13% | Activity (HL-60 [8]): 20% | Activity (HL-60 [9]): 0.358% | Activity (HL-60 [10]): 54.2% | Activity (HL-60 [11]): 3.91% | Activity (HL-60 [12]): 0.415% | Activity (HL-60 [13]): 68.9% | Activity (HL-60 [14]): 20.4% | Activity (HL-60 [15]): 33.9% | Activity (HL-60 [16]): 4.97%
